Assay results from US8841456B2, “1,5-naphthyridine derivative or salt thereof” (FUJIFILM Corporation, priority 2011, dated 2014).

Legend:
[1] = biological target: T1, glutathione S-transferase (GST)-fusion human ERK2 protein (Homo sapiens, UniProt P28482); experiment: ERK2 enzyme assay (LabChip mobility shift); assay type: biochemical; details: IC50 class; 2 nM ERK2, 4.25 μM FL-Peptide 8, 43 μM ATP; read-out: ERK2 Inhibitory Activity
T1 construct: purchased Carna Biosciences, Inc; host or cells: E. coli expression system
In short: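 GST-tagged human ERK2 from E. coli, at 2 nM, was preincubated 15 min at room temperature with compound in Hepes pH 7.5 with MgCl2, DTT and Brij35. The reaction ran 120 min at 25 °C with 4.25 μM FL-Peptide 8 and 43 μM ATP (final). Phosphopeptide fraction was measured by mobility-shift separation to give IC50.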

human PI3Kα protein = biological target: T2, human PI3Kα protein (Homo sapiens, UniProt P42336); experiment: PI3Kα enzyme assay (ADP-Glo kinase assay); assay type: biochemical; details: IC50 class; 3 nM PI3Kα, 50 μM PIP2, 100 μM ATP; read-out: PI3Kα Inhibitory Activity
T2 construct: purchased Carna Biosciences, Inc; host or cells: Baculovirus expression system
In short: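 Baculovirus-expressed biotinylated human PI3Kα (3 nM) preincubated 15 min with compound in Tris pH 7.5, MgCl2, BSA, then reacted 60 min at 25 °C with 50 μM PIP2 and 100 μM ATP. ADP quantified by ADP-Glo luminescence; IC50 calculated.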

T2 sequence (P42336 whole entry): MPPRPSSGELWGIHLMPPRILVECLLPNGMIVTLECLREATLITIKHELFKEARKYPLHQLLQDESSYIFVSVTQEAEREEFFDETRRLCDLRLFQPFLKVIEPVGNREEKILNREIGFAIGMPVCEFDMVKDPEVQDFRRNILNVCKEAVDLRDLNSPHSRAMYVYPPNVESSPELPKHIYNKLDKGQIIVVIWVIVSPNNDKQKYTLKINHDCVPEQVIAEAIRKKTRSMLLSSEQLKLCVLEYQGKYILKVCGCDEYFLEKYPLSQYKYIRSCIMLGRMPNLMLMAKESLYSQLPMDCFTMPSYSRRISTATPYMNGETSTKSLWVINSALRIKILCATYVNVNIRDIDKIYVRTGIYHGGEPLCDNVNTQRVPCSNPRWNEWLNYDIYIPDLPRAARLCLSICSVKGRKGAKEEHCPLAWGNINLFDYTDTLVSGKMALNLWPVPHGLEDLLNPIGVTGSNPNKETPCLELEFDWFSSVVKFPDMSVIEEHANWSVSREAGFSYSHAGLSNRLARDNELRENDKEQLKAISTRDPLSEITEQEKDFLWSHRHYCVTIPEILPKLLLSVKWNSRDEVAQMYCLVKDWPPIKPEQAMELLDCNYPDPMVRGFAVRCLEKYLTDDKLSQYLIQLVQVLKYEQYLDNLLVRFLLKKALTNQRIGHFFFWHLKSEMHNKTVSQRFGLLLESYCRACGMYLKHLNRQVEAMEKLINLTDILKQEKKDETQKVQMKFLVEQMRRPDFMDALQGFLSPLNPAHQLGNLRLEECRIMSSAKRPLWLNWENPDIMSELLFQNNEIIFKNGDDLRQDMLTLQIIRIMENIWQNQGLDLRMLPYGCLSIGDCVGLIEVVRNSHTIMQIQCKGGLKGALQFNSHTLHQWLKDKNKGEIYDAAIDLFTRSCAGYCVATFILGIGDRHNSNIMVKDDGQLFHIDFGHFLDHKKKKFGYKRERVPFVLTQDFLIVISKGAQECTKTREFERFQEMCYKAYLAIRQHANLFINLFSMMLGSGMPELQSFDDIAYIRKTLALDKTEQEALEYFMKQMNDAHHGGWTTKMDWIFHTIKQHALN
T2 sequence (P27986 whole entry partner): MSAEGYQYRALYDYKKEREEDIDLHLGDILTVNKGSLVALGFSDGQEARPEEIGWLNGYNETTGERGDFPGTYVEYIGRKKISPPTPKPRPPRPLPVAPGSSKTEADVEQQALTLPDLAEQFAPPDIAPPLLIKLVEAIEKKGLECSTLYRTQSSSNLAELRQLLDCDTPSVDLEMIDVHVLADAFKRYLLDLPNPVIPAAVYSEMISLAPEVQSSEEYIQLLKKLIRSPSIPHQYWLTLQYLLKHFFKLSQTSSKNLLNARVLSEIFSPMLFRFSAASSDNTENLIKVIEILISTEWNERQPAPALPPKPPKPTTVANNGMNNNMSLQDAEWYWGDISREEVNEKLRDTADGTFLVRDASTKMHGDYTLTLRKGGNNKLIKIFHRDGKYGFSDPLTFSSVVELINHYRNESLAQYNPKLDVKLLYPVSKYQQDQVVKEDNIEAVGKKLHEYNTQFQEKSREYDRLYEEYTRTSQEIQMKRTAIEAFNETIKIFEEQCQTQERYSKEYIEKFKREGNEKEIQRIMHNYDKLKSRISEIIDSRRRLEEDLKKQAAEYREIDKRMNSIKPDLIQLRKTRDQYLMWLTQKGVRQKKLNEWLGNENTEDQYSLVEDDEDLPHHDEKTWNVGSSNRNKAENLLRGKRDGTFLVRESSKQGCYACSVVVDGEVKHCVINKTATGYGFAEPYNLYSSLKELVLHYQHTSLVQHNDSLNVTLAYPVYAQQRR
T1 sequence (P28482 whole entry, the tested form may be a part): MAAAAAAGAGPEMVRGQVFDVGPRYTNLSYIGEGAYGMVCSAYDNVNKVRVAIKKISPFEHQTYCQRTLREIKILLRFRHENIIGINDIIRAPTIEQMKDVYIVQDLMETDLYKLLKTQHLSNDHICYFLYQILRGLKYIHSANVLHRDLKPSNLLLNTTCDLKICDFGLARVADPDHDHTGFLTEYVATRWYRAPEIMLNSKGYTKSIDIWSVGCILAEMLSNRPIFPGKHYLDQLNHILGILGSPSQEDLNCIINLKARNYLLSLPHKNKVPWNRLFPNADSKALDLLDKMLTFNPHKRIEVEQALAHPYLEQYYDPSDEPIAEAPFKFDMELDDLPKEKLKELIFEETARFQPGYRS

Row | SMILES | IC50 [1] | IC50 (human PI3Kα protein)
1 | O=C(Nc1ccc2ncc(-c3cnn(CCCN4CC[C@H](F)C4)c3)cc2n1)NC1CCCC1 [Compound 0247] | < 100 nM | < 100 nM
2 | O=C(NCCCN1CCCCC1)Nc1ccc2ncc(-c3cn[nH]c3)cc2n1 [Compound 0202] | 100 to 1000 nM | 1000 to 10000 nM
3 | COCCN(C)c1cnc2ccc(NC(=O)NC3CCCC3)nc2c1 [Compound 0026] | 100 to 1000 nM | < 100 nM
4 | O=C(Nc1ccc2ncc(-n3ccnc3)cc2n1)NC1CCCC1 [Compound 0259] | < 100 nM | 100 to 1000 nM
5 | O=C(Nc1ccc2ncc(-c3cc(O)no3)cc2n1)NC1CCCC1 [Compound 0128] | 1000 to 10000 nM | 100 to 1000 nM
6 | O=C(Nc1ccc2ncc(-c3cnn(CCCN4CCNCC4)c3)cc2n1)NC1CCCC1 [Compound 0212] | < 100 nM | < 100 nM
7 | CC(C)NC(=O)Nc1ccc2ncc(-c3cn[nH]c3)cc2n1 [Compound 0053] | < 100 nM | < 100 nM
8 | CN1CCC(n2cc(-c3cnc4ccc(NC(=O)NC5CCCC5)nc4c3)cn2)CC1 [Compound 0228] | < 100 nM | < 100 nM
9 | C[C@H](NC(=O)Nc1ccc2ncc(-c3cn[nH]c3)cc2n1)C1CCCC1 [Compound 0199] | < 100 nM | 100 to 1000 nM
10 | CCCNC(=O)Nc1ccc2ncc(-c3cn[nH]c3)cc2n1 [Compound 0055] | < 100 nM | 100 to 1000 nM
11 | O=C(Nc1ccc2ncc(-c3ccccc3)cc2n1)NC1CCCC1 [Compound 0006] | 100 to 1000 nM | 100 to 1000 nM
12 | C[C@H](C[C@H](C)NC(=O)Nc1ccc2ncc(-c3cn[nH]c3)cc2n1)Oc1ccccc1 [Compound 0162] | 100 to 1000 nM | 100 to 1000 nM
13 | O=C(NCC1CC1)Nc1ccc2ncc(-c3cn[nH]c3)cc2n1 [Compound 0186] | < 100 nM | 100 to 1000 nM
14 | CN1CCN(c2cnc3ccc(NC(=O)NC4CCCC4)nc3c2)CC1 [Compound 0027] | 100 to 1000 nM | 100 to 1000 nM
15 | O=C(Nc1ccc2ncc(-c3cn[nH]c3)cc2n1)NC1CCCCCC1 [Compound 0058] | < 100 nM | < 100 nM
16 | C=Cn1cc(-c2cnc3ccc(NC(=O)NC4CCCC4)nc3c2)cn1 [Compound 0019] | < 100 nM | < 100 nM

Row | SMILES | IC50 [1] | IC50 (human PI3Kα protein)
17 | O=C1CN(c2cnc3ccc(NC(=O)NC4CCCC4)nc3c2)CCN1 [Compound 0142] | 100 to 1000 nM | < 100 nM
18 | O=C(Nc1ccc2ncc(N3CC(OCCN4CCOCC4)C3)cc2n1)NC1CCCC1 [Compound 0241] | 100 to 1000 nM | < 100 nM
19 | CC(C)[C@H](C)NC(=O)Nc1ccc2ncc(-c3cn[nH]c3)cc2n1 [Compound 0083] | < 100 nM | < 100 nM
20 | C[C@H](CN(C)C)Cn1cc(-c2cnc3ccc(NC(=O)NC4CCCC4)nc3c2)cn1 [Compound 0244] | < 100 nM | < 100 nM
21 | O=C(Nc1ccc2ncc(-c3cnco3)cc2n1)NC1CCCC1 [Compound 0239] | < 100 nM | < 100 nM
22 | O=C(NCC1CCC(F)(F)CC1)Nc1ccc2ncc(-c3cn[nH]c3)cc2n1 [Compound 0113] | < 100 nM | 100 to 1000 nM
23 | CCCCCNC(=O)Nc1ccc2ncc(-c3cn[nH]c3)cc2n1 [Compound 0094] | < 100 nM | < 100 nM
24 | O=C(NCC1CCOCC1)Nc1ccc2ncc(-c3cn[nH]c3)cc2n1 [Compound 0191] | < 100 nM | 100 to 1000 nM
25 | CN(C)CCn1cc(-c2cnc3ccc(NC(=O)NC4CCCC4)nc3c2)cn1 [Compound 0018] | 100 to 1000 nM | < 100 nM
26 | O=C(Nc1ccc2ncc(-c3cnn(CCN4CC5(COC5)C4)c3)cc2n1)NC1CCCC1 [Compound 0117] | 100 to 1000 nM | < 100 nM
27 | O=C(Nc1ccc2ncc(-c3cn[nH]c3)cc2n1)NC1CCC(Oc2ccccc2)C1 (stereo not shown) [Compound 0092] | < 100 nM | < 100 nM
28 | CC(C)CC(C)NC(=O)Nc1ccc2ncc(-c3cn[nH]c3)cc2n1 (stereo not shown) [Compound 0087] | < 100 nM | < 100 nM
29 | C[C@H](NC(=O)Nc1ccc2ncc(-c3cn[nH]c3)cc2n1)C1CCCCC1 [Compound 0079] | < 100 nM | < 100 nM
30 | O=C(Nc1ccc2ncc(-c3ccnc(O)c3)cc2n1)NC1CCCC1 [Compound 0023] | 100 to 1000 nM | < 100 nM
31 | COc1nc2ccc(NC(=O)NC3CCCC3)nc2cc1-c1cnn(C)c1 [Compound 0234] | > 10000 nM | 1000 to 10000 nM
32 | O=C(Nc1ccc2ncc(-c3nn[nH]n3)cc2n1)NC1CCCC1 [Compound 0131] | 100 to 1000 nM | < 100 nM
